In PMC11288027, “Exploring novel microbial metabolites and drugs for inhibiting Clostridioides difficile” (mSphere, 2024):
“And” between values parts separate entries of the source, which are not always exact repeats. Equal entries are not always repeated. Where two headings read alike, the source gives them in different places.

Experiments:
[1] = system: C. difficile ATCC BAA-1870; experiment: MIC of active hits by broth microdilution; conditions: C. difficile ATCC BAA-1870, 48 h anaerobic; for MIC: Clostridioides difficile, ATCCBAA1870, 48 h
[2] = system: C. difficile clinical isolates; experiment: MIC against a panel of 20 C. difficile clinical isolates (broth microdilution); type: cell-based, Clostridioides difficile; conditions: Clostridioides difficile; for MIC50: concentration that inhibited 50% of the 20 C. difficile clinical isolates, read-out: MIC50; for MIC: read-out: minimum inhibitory concentration (MIC)
[3] = system: B. fragilis; experiment: MIC against human gut microbiota; type: cell-based, Bacteroides fragilis; conditions: Bacteroides fragilis, anaerobic, read-out: minimum inhibitory concentration (MIC)
[4] = system: B. dorei; experiment: MIC against human gut microbiota; type: cell-based, Bacteroides dorei; conditions: Phocaeicola dorei; B. dorei HM- 719, BHIS broth, anaerobic; read-out: minimum inhibitory concentration (MIC)
[5] = system: Bif. breve; experiment: MIC against human gut microbiota; type: cell-based, Bifidobacterium breve; conditions: Bifidobacterium breve, ATCC15700; Bif. breve ATCC 15700, BHIS broth, anaerobic; read-out: minimum inhibitory concentration (MIC)
[6] = system: Bif. angulatum; experiment: MIC against human gut microbiota; type: cell-based, Bifidobacterium angulatum; conditions: Bifidobacterium angulatum; Bif. angulatum HM- 1189, BHIS broth, anaerobic; read-out: minimum inhibitory concentration (MIC)
[7] = system: Bif. adolescentis; experiment: MIC against human gut microbiota; type: cell-based, Bifidobacterium adolescentis; conditions: Bifidobacterium adolescentis; Bif. adolescentis HM- 633, BHIS broth, anaerobic; read-out: minimum inhibitory concentration (MIC)
[8] = system: Bif. longum; experiment: MIC against human gut microbiota; type: cell-based, Bifidobacterium longum; conditions: Bifidobacterium longum, anaerobic, read-out: minimum inhibitory concentration (MIC)
[9] = system: E. faecium; experiment: MIC against human gut microbiota; type: cell-based, Enterococcus faecium; conditions: Enterococcus faecium; E. faecium HM-202, TSB, aerobic; read-out: minimum inhibitory concentration (MIC)
[10] = system: E. fecalis; experiment: MIC against human gut microbiota; type: cell-based, Enterococcus faecalis; conditions: Enterococcus faecalis; E. fecalis HM-970, TSB, aerobic; read-out: minimum inhibitory concentration (MIC)
[11] = system: L. casei; experiment: MIC against human gut microbiota; type: cell-based; conditions: Lacticaseibacillus casei, ATCC334; L. casei ATCC 334, MRS broth, 5% CO2; read-out: minimum inhibitory concentration (MIC)
[12] = system: L. brevis; experiment: MIC against human gut microbiota; type: cell-based, Lactobacillus brevis; conditions: Levilactobacillus brevis, ATCC14864; L. brevis ATCC-14864, MRS broth, 5% CO2; read-out: minimum inhibitory concentration (MIC)
[13] = system: L. rhamanosus; experiment: MIC against human gut microbiota; type: cell-based, Lactobacillus rhamnoosus; conditions: Lactobacillus, ATCC53103; L. rhamanosus ATCC-53103, MRS broth, 5% CO2; read-out: minimum inhibitory concentration (MIC)
[14] = system: C. difficile ATCC BAA-1870; experiment: Time-kill assay at 5 × MIC; conditions: C. difficile ATCC BAA-1870, ~10^6 CFU/mL, up to 24 h

CC(C)=CCC[C@](C)(O[C@@H]1O[C@H](CO)[C@@H](O)[C@H](O)[C@H]1O)[C@H]1CC[C@]2(C)[C@@H]1[C@H](O)C[C@@H]1[C@@]3(C)CC[C@H](O)C(C)(C)[C@@H]3CC[C@]12C [Ginsenoside C-K]
16 µM and 9.97 µg/mL: MIC [1]

CCc1c(Cl)c(O)c(Cl)c(O)c1C(=O)O[C@H]1[C@H](O)[C@H](OC)[C@H](OC/C2=C\C=C\C[C@H](O)/C(C)=C/[C@H](CC)[C@@H](O[C@@H]3OC(C)(C)[C@@H](OC(=O)C(C)C)[C@H](O)[C@@H]3O)/C(C)=C/C(C)=C/C[C@@H]([C@@H](C)O)OC2=O)O[C@@H]1C [Fidaxomicin]
64 µg/mL: MIC [12]
8 µg/mL: MIC [11] | MIC [13]
0.03 µg/mL: MIC ([2]; ATCC43255, C. difficile ATCC 43255) | MIC ([2]; C. difficile CD-10(Ribotype-027)) | MIC ([2]; C. difficile CD-12) | MIC ([2]; C. difficile NR-49302) | MIC ([2]; C. difficile NR-49319)
> 256 µg/mL: MIC ([3]; B. fragilis HM- 709, BHIS broth) | MIC ([3]; B. fragilis HM- 718, BHIS broth) | MIC [4]
≤ 2 µg/mL: MIC [5] | MIC [6] | MIC [7] | MIC ([8]; Bif. longum HM- 845, BHIS broth) | MIC ([8]; Bif. longum HM- 846, BHIS broth) | MIC ([8]; Bif. longum HM- 847, BHIS broth) | MIC ([8]; Bif. longum HM- 848, BHIS broth) | MIC [9] | MIC [10]
0.015 µg/mL: MIC50 ([2]; 48 h) | MIC ([2]; C. difficile CD-15) | MIC ([2]; C. difficile CD-28) | MIC ([2]; C. difficile CD-30) | MIC50 [2]
≤ 24 h: time to eliminate / clear C. difficile [14]
≤ 0.0078 µg/mL: MIC ([2]; ATCC630, C. difficile ATCC 630) | MIC ([2]; ATCCBAA1870, C. difficile ATCC BAA-1870 (Ribotype-027), purchased compounds, panel test) | MIC ([2]; C. difficile CD-13) | MIC ([2]; C. difficile CD-22) | MIC ([2]; C. difficile CD-24) | MIC ([2]; C. difficile CD-29 (Ribotype-027)) | MIC ([2]; C. difficile NR-49304) | MIC ([2]; C. difficile NR-49308) | MIC [1]
0.06 µg/mL: MIC ([2]; C. difficile CD-1 (Ribotype-027)) | MIC ([2]; C. difficile CD-6 (Ribotype-027)) | MIC ([2]; C. difficile CD-23) | MIC ([2]; C. difficile CD-26 (Ribotype-027)) | MIC90 ([2]; concentration that inhibited 90% of the 20 C. difficile clinical isolates, read-out: MIC90)

Avermectin B1
16 µM: MIC (μM) [1]
27.71 µg/mL: MIC (μg/mL) [1]

Cc1cc(SCc2sc(-c3ccc(C(F)(F)F)cc3)nc2C)ccc1OCC(=O)O [GW 501516]
16 µM and 14.5 µg/mL: MIC [1]
